Earlier results as cited in paper PMC7518156 (PeerJ, 2020).
Like-named read-outs stand apart in the source and are kept apart here.

Conditions: ref Scheffler et al., 2011, cited from earlier work; for half-life (t1/2): Lu et al., 2006
[1] = oral administration, cancer patients
[2] = oral administration, healthy subjects

Question: With `COc1cc2ncnc(Nc3ccc(F)c(Cl)c3)c2cc1OCCCN1CCOCC1` [GEF, Gefitinib] as the compound, how does the “half-life (t1/2)” value (cancer patients) read?
Answer: The value was about 48 h.

Question: And the “half-life (t1/2)” value (healthy patients)?
Answer: Its value is “about 41 h”.

Question: What about the Tmax [1] of the same compound?
Answer: Its Tmax is “about 7 h”.

Question: What about the “time to reach maximum concentration (tmax)” value [2] of the same compound?
Answer: Its value is 3 h.

Question: Which “half-life (t1/2)” value (cancer patients) does the source give for `C#Cc1cccc(Nc2ncnc3cc(OCCOC)c(OCCOC)cc23)c1` [ERL, Erlotinib] here?
Answer: Its value is “up to 40.9 h”.

Question: What about the “half-life (t1/2)” value (healthy patients) of the same compound?
Answer: The value was “about 24.4 h”.

Question: What about the F [1] of the same compound?
Answer: Its F is 76%.

Question: What about the Tmax [1] of the same compound?
Answer: The Tmax was 3 h.

Question: And the “mean bioavailability (F)” value [2]?
Answer: The value was 59%.

Question: What about the “time to reach maximum concentration (tmax)” value [2] of the same compound?
Answer: The value was 1.4 h.
